In PMC8203924, “Development of a Potent Antimicrobial Peptide With Photodynamic Activity” (Frontiers in Microbiology, 2021):
Converted amounts (≈) assume the structure as drawn. Read-outs that look alike come from different tables or passages of the source. Peptide text beside a SMILES is read from it. * marks the point of attachment. X1 = O=C(c1ccc2c3nc4nc(nc5[nH]c(nc6nc(nc([nH]3)c2c1)-c1ccccc1-6)c1ccccc51)-c1ccccc1-4)*

How the values were obtained:
MRSA (ATCC 33591) [1] = type: cell-based, methicillin-resistant S. aureus; conditions: ATCC 33591, 20 h
Procedure: (§1) E. coli (ATCC 8739), S. aureus (ATCC 6538), or MRSA (ATCC 33591) were grown in LB culture medium at 37°C under aerobic conditions overnight (8–12 h) before use.
(§2) Bactericidal kinetics assay was also determined.

E. coli (ATCC 8739) [2] = type: cell-based, Escherichia coli; conditions: ATCC 8739, 20 h
Procedure: as §1, §2

S. aureus (ATCC 6538) [3] = type: cell-based, Staphylococcus aureus; conditions: ATCC 6538, 20 h
Procedure: as §1, §2

S. aureus [4] = conditions: 1-MIC, 12 h, OD600 hourly, 37°C
Procedure: (§6) Bactericidal kinetics assay was also determined. Different final concentrations (0, 1/8-, 1/4-, 1/2-, 1-MIC) of the peptides were added to the bioluminescent S. aureus suspension (10^3 CFU/ml). The bacteria were incubated at 37°C and 150 rpm. An aliquot of 100 μl of the suspension was taken out to measure the absorption at 600 nm on microplate reader once an hour for up to 12 h.

bioluminescent S. aureus [5] = type: cell-based, Staphylococcus aureus; conditions: without light; for higher efficacy than compound 1 or 2: on both bacterial strains (bioluminescent S. aureus and E. coli); for IC50: bioluminescent S. aureus, 10^6 CFU/ml in PBS, peptides in PBST, luminescence monitored 1 h, triplicate, mean ± SD, read-out: IC50 against S. aureus
Text: The side chain-protected peptides G3(RW)3, G3(RW)3K5, and G3K5(RW)3 on Wang resin were obtained commercially (GL Biochem Ltd., Shanghai). Beta-carboxy phthalocyanine zinc was developed by us by a method previously reported ([Chen et al., 2006]). Beta-carboxy phthalocyanine (β-PcCOOH) was purified on a silica column with N,N-dimethylformamide (DMF):acetone (3:1) as the second band. All the chemical reagents were analytical grade and used without further purification. Distilled water was used throughout the experiments. E. coli (ATCC 8739), S. aureus (ATCC 6538), and MRSA (ATCC 33591) were acquired from ATCC. Bioluminescent strains of E. coli DH5α were constructed by transformation of plasmid pAKlux2.1, which contained a complete bacterial luciferase operon as described ([Ullah et al., 2018]; [Chen et al., 2019]), and S. aureus Xen29 (NCTC8532) containing a stable copy of the modified Photorhabdus luminescens luxABCDE operon was purchased from Shanghai Biofeng Company.
(§3) Bioluminescent bacteria were grown in Luria-Bertani (LB) culture medium at 37°C under aerobic conditions overnight 8–12 diluted 100 times to 10^6 colony-forming units (CFU)/ml in phosphate buffered saline (PBS) before incubating with the peptides. The peptide or new compounds were first dissolved in PBST (PBS with 0.05% Tween 20) to prepare 1-mM stock solutions, and the solutions were then further diluted up to 100 μM with PBST. The bacterial suspensions were then incubated in 96-well plates with the compound peptides. The luminescence was monitored for 1 h to measure the bacterial viability. The percentage of survived bacteria was determined from the luminescence intensities of the treated group divided by the luminescence signal of the controls.

S. aureus (ATCC 6538) [6] = conditions: 2 μM
Procedure: as §1
(§4) Photo-assisted antimicrobial activity assays of the compound peptides against ATCC standard strains were carried out by colony counting method. The agar plates with only bacterial suspension were used as negative control. The peptide and bacterial suspension were incubated together in 96-well microplates first. Under the same conditions, for comparison, the other groups were set without light. After incubation for 40 min at room temperature, aliquots of 100 μl were taken out of the solutions and placed on agar plates at serial dilutions, then incubated at 37°C for 18–24 h. Numbers of colonies were counted, and the antimicrobial rate (R) was calculated: R = (B-A)/B × 100%. Here, A is the bacterial colony number on the agar plates containing various concentrations of the peptides, and B is the colony number for negative control.

E. coli (ATCC 8739) [7] = conditions: 2 μM
Procedure: as §1, §4

bioluminescent S. aureus [8] = type: cell-based, Staphylococcus aureus; conditions: for IC50: bioluminescent S. aureus, 680 nm LED 6 min, 12 J/cm^2, 33.33 mW/cm^2, after 10 min incubation, triplicate, mean ± SD, read-out: IC50 against S. aureus upon illumination
Procedure: as §3
(§5) For photo-assisted antimicrobial activity measurements against bioluminescent bacteria, we used a procedure similar to as above, but with illumination using LM-LED light (680 nm) for 6 min (light dose of 12 J/cm^2, 33.33 mW/cm^2) after 10 min incubation of the bacterial suspensions and the compound peptides.

S. aureus [9] = test system: S. aureus
Text: Kunming mice (4-week-old, 25 ± 2 g, purchased from Shanghai SLAC Laboratory Animal Co. Ltd., Shanghai, China) were maintained and handled in accordance with the recommendations of the Institutional Animal Care And Use Committee (IACUC). […] Each group had six mice. All groups of mice were allowed free access to water and food throughout the experimental process. In each group, excisional wounds (10 mm × 10 mm) was made on the dorsal surface of the mouse by disinfected scissors to a depth of 2.0 mm. The bottom of the wound was panniculus carnosus with no visible bleeding. An aliquot (50 μl) of mid-log phase S. aureus (10^8 CFU/ml) was then inoculated into each wound of mice. […] The area of the wounds and body weight of mice were measured each day.

E. coli = conditions: 1-MIC, 12 h, OD600 hourly, 37°C
Procedure: as §6

[10] = mouse, in vivo, iv
Procedure: The blood of mice was diluted 10 times with DMF, immediately after collection, and then centrifuged to get supernatant for further determination. The supernatant was measured by fluorescence spectrophotometer F-4600 (HITACHI, Tokyo, Japan). The fluorescence intensity was recorded. The excitation and emission wavelengths were set at 610 and 680 nm. […] The plasma half-life (t1/2) can be calculated by the following formula:
Here, k represents the slope of fluorescence intensity-log (concentration) regression equation.

[11] = mouse, in vivo, iv; remark: listed apart in the source
Procedure: The mice were sacrificed at 2, 4, 8, 12, 24, 36, 48, and 72 h post-injection, and their primary organs (liver, kidneys, heart, spleen, lung, stomach, intestines) or muscles were collected postmortem. Meanwhile, their blood was collected through enucleation of eyeballs. These samples were then washed with saline and imaged on the three-dimension FMT 2500TM LX (PerkinElmer, Waltham, MA, United States) using the same acquisition settings as the in vivo imaging to quantitate the peptide average concentrations in the samples.

in vitro = conditions: human, human embryonic lung fibroblast (HELF) cells
Procedure: The culture medium was used as control. The cells were washed with PBS, then were divided into two groups, and the light group was exposed to 12 J/cm^2 of 680 nm light illumination. After another 12-h incubation, the culture medium was refreshed and 3-(4,5-dimethylthiazol-2-yl)-2,5-diphenyltetrazolium bromide (MTT) was added. After 4-h incubation at 37°C, the absorbance at 490 nm was measured on a multi-mode microplate reader (BioTek Synergy 4). The inhibition rate of cell growth was calculated by the following equation:
Cell viability%=Mean absorbance value of treatment group/Mean absorbance value of control×100%

MRSA (ATCC 33591) [12] = assay: Photo-assisted antimicrobial activity by colony counting method; type: cell-based, methicillin-resistant S. aureus; conditions: 2 μM, 6 min illumination, 12 J/cm^2, 33.33 mW/cm^2, colony counting, start 10^6 CFU/ml
Procedure: as §1, §4

bioluminescent E. coli [13] = assay: Photo-assisted antimicrobial activity against bioluminescent bacteria; type: cell-based, Escherichia coli; conditions: 680 nm LED 6 min, 12 J/cm^2, 33.33 mW/cm^2, after 10 min incubation, triplicate, mean ± SD, read-out: IC50 against E. coli upon illumination
Procedure: as §3, §5

bioluminescent E. coli [14] = type: cell-based, Escherichia coli; conditions: 10^6 CFU/ml in PBS, peptides in PBST, luminescence monitored 1 h, without light, triplicate, mean ± SD, read-out: IC50 against E. coli
Text: The side chain-protected peptides G3(RW)3, G3(RW)3K5, and G3K5(RW)3 on Wang resin were obtained commercially (GL Biochem Ltd., Shanghai). Beta-carboxy phthalocyanine zinc was developed by us by a method previously reported ([Chen et al., 2006]). Beta-carboxy phthalocyanine (β-PcCOOH) was purified on a silica column with N,N-dimethylformamide (DMF):acetone (3:1) as the second band. All the chemical reagents were analytical grade and used without further purification. Distilled water was used throughout the experiments. E. coli (ATCC 8739), S. aureus (ATCC 6538), and MRSA (ATCC 33591) were acquired from ATCC. […]
Bioluminescent bacteria were grown in Luria-Bertani (LB) culture medium at 37°C under aerobic conditions overnight 8–12 diluted 100 times to 10^6 colony-forming units (CFU)/ml in phosphate buffered saline (PBS) before incubating with the peptides. […] The luminescence was monitored for 1 h to measure the bacterial viability. The percentage of survived bacteria was determined from the luminescence intensities of the treated group divided by the luminescence signal of the controls.

[15] = 36-s exposure or 0.60 J/cm^2, 33.33 mW/cm^2
[16] = 6 min illumination, 12 J/cm^2, 33.33 mW/cm^2, colony counting
[17] = 6 min illumination, 12 J/cm^2, 33.33 mW/cm^2, colony counting, start 10^6 CFU/ml

Molecule	MIC against MRSA (MRSA (ATCC 33591) [1]) [µM]	MIC against E. coli (E. coli (ATCC 8739) [2]) [µM]	MIC against S. aureus (S. aureus (ATCC 6538) [3]) [µM]	higher efficacy than compound 1 or 2 (bioluminescent S. aureus [5])	IC50 (bioluminescent S. aureus [5]) [µM]	IC50 (bioluminescent S. aureus [8]) [µM]	IC50 (bioluminescent E. coli [13]) [µM]	IC50 (bioluminescent E. coli [14]) [µM]	other results
N=C(N)NCCC[C@H](NC(=O)CNC(=O)CNC(=O)CNC(=O)c1ccc2c3nc4nc(nc5[nH]c(nc6nc(nc([nH]3)c2c1)-c1ccccc1-6)c1ccccc51)-c1ccccc1-4)C(=O)N[C@@H](Cc1c[nH]c2ccccc12)C(=O)N[C@@H](CCCNC(=N)N)C(=O)N[C@@H](Cc1c[nH]c2ccccc12)C(=O)N[C@@H](CCCNC(=N)N)C(=O)N[C@@H](Cc1c[nH]c2ccccc12)C(=O)O [Compound 3, PcG3(RW)3] (X1-GGGRWRWRW-OH)	24.0 (≈ 42.2 µg/mL)	48.0 (≈ 84.3 µg/mL)	12.0 (≈ 21.1 µg/mL)	–	–	–	–	–	–
N=C(N)NCCC[C@H](NC(=O)[C@H](Cc1c[nH]c2ccccc12)NC(=O)[C@H](CCCNC(=N)N)NC(=O)[C@H](Cc1c[nH]c2ccccc12)NC(=O)[C@H](CCCNC(=N)N)NC(=O)[C@H](CCCCN)NC(=O)[C@H](CCCCN)NC(=O)[C@H](CCCCN)NC(=O)[C@H](CCCCN)NC(=O)[C@H](CCCCN)NC(=O)CNC(=O)CNC(=O)CNC(=O)c1ccc2c3nc4nc(nc5[nH]c(nc6nc(nc([nH]3)c2c1)-c1ccccc1-6)c1ccccc51)-c1ccccc1-4)C(=O)N[C@@H](Cc1c[nH]c2ccccc12)C(=O)O [Compound 4, PcG3K5(RW)3] (X1-GGGKKKKKRWRWRW-OH)	16.1 (≈ 38.6 µg/mL)	16.1 (≈ 38.6 µg/mL)	8.0 (≈ 19.2 µg/mL)	2–4 times	–	–	–	–	bacterial proliferation of S. aureus at MIC (S. aureus [4]): completely stopped; elimination of S. aureus at low dose of light (S. aureus (ATCC 6538) [6]; [15]): ~95%; reduction of S. aureus (S. aureus (ATCC 6538) [6]; [16]): ≤ 99.999%; log reduction of S. aureus (S. aureus (ATCC 6538) [6]; [17]): up to 5 log; elimination of E. coli at low dose of light (E. coli (ATCC 8739) [7]; [15]): about 80%; reduction of E. coli (E. coli (ATCC 8739) [7]; [16]): 99.9%; log reduction of E. coli (E. coli (ATCC 8739) [7]; [17]): 3 log; increase of inhibitory efficacy upon illumination (bioluminescent S. aureus [8]; red light / LED illumination vs no light, S. aureus and E. coli): ~ 140 fold; wound recovery with one-time illumination (S. aureus [9]; 20 μM local, one-time 680-nm illumination 12.0 J/cm^2, 33.33 mW/cm^2, vs without illumination): better wound recovery than the ones without illumination at the first 3 days after surgery; wound healing of S. aureus infected excisional wounds (S. aureus [9]; 50 μl of 20 μM local administration, without light, n = 6 per group): promoted wound healing and prevented or alleviated the infection; bacterial proliferation of E. coli at MIC (E. coli): completely stopped; plasma half-life (t1/2) [10]: 11.09 h; time to be cleared out of organs [11]: ≤ 72 h; viability at 24 h (in vitro): > 90%; log reduction of MRSA (MRSA (ATCC 33591) [12]): up to 5 log
N=C(N)NCCC[C@H](NC(=O)CNC(=O)CNC(=O)CNC(=O)c1ccc2c3nc4nc(nc5[nH]c(nc6nc(nc([nH]3)c2c1)-c1ccccc1-6)c1ccccc51)-c1ccccc1-4)C(=O)N[C@@H](Cc1c[nH]c2ccccc12)C(=O)N[C@@H](CCCNC(=N)N)C(=O)N[C@@H](Cc1c[nH]c2ccccc12)C(=O)N[C@@H](CCCNC(=N)N)C(=O)N[C@@H](Cc1c[nH]c2ccccc12)C(=O)N[C@@H](CCCCN)C(=O)N[C@@H](CCCCN)C(=O)N[C@@H](CCCCN)C(=O)N[C@@H](CCCCN)C(=O)N[C@@H](CCCCN)C(=O)O [Compound 5, PcG3(RW)3K5] (X1-GGGRWRWRWKKKKK-OH)	16.1 (≈ 38.6 µg/mL)	16.1 (≈ 38.6 µg/mL)	16.1 (≈ 38.6 µg/mL)	2–4 times	–	–	–	–	–
H-GGGKKKKKRWRWRW-OH [Compound 1, G3K5(RW)3]	107.8	>215.6	107.8	–	45.6 ± 2.9	44.6 ± 4.72	59.2 ± 1.97	61.8 ± 4.3	–
H-GGGRWRWRWKKKKK-OH [Compound 2, G3(RW)3K5]	107.8	>215.6	107.8	–	68 ± 3.2	71.6 ± 2.82	129 ± 30.3	135 ± 25.3	–
